Data: US20220110862A1, “TREATMENT OF COGNITIVE DYSFUNCTION WITH PYRROLOPYRIDINE-ANILINE COMPOUNDS” (NFlection Therapeutics, Inc., priority 2020, published 2022)
Several values for one entry are separate records, joined by “and”; a condition that tells them apart may be missing. Identical values can stand only once. Like-named read-outs stand apart in the source and are kept apart here.

Columns and labels:
[1] = Brain concentration and brain:plasma ratio of Compound 1.003 after single intranasal administration of nasal formulation Ex. A (LC-MS/MS); assay type: in vivo, Mouse; conditions: female athymic mice, single intranasal 50 μL Ex. A; for Brain concentration, animal replicates: individual animals; for Brain concentration, Mean: mean of 3
Method: (§1) This study was conducted to investigate the potential for Compound 1.003 to penetrate into the brain following a single intranasal administration of a nasal formulation including the compound. Compound 1.003 was formulated at a dose strength of 2.3% according to Ex. A of Example 1.
(§2) A single group of female athymic mice each received a single intranasal administration of Compound 1.003. At intervals post dose the animals were sacrificed and samples of blood and brain were collected. The concentration of Compound 1.003 was determined in plasma and brain; and samples of brain were used for determination of the expression of phosphor-ERK (p-ERK).
(§3) The study was conducted using the following animals: • Species: Mouse; • Strain: NCr mu/mu athymic nude mice from Charles River; • Sex: Female; • Age: 7 weeks old at the time of dosing; • Body weight: 20.1 to 27.0 g; and • Number used: 12
(§4) Overview: A single group of 12 athymic female mice each received a single intranasal administration of Compound 1.003 (Ex. A nasal formulation of Example 1). Three animals were sacrificed at each a 4 times post dose and sample of plasma and brain collected at necropsy. The concentration of Compound 1.003 was determined in plasma and brain by liquid chromatography with tandem mass spectrometry (LC-MS/MS) and the expression of p-ERK was determined in brain samples.
(§5) Dosing: Each animal received a single administration (50 μL) of the nasal formulation Ex. A including Compound 1.003. The dose was administration intranasally to each animal.
(§6) (dry ice). The samples were send out for the LC-MS/MS analysis of plasma concentration of Compound 1.003. • Brain Collection: Brain (divide into 2 parts at the mid sagittal plane); Part 1: preservation—snap frozen, ship at −80° C. (dry ice) for the LC-MS/MS analysis of Compound 1.003; and Part 2: preservation—fixed in 10% neutral buffered formalin for at least 24 h. Samples were then transferred after 24 h into 1.5 mL Eppendorf tubes containing 70% EtOH and stored ambient until shipment for the expression of p-ERK.
(§7) Bioanalytical Methods: Bioanalysis of […] plasma and brain samples for Compound 1.003 was performed using the LC-MS/MS analysis. For this study, the analysis was conducted using existing fit for purpose bioanalytical methods. Plasma samples were analyzed undiluted against a plasma standard curve (10 standards between 0.5 to 5000 ng/mL). Prior to analysis for concentration of compound 1.003, the brain samples were weighed, mixed with 5 volumes of water and then homogenised. Homogenised samples were then diluted 2× into plasma and then analysed against the plasma standard curve ([…]). All results were then corrected for the dilution factor.

[2] = Plasma concentration of Compound 1.003 after single intranasal administration of nasal formulation Ex. A (LC-MS/MS); assay type: in vivo, Mouse; conditions: female athymic mice
Method: as §1, §2, §3, §4, §5, §6, §7

Brain:plasma concentration ratio, individual animal ([1]; 0.250 h post dose, animals 1-3): 0.30 and 0.49 | Brain concentration, animal replicates ([1]; 0.250 h post dose): 405 and 375 and 280 | Brain concentration, Mean ([1]; 0.250 h post dose): 353 ng/g | Brain:plasma concentration ratio, individual animal ([1]; 0.500 h post dose, animals 4-6): 0.51 and 0.47 | Brain concentration, animal replicates ([1]; 0.500 h post dose): 297 and 513 and 383 | Brain concentration, Mean ([1]; 0.500 h post dose): 398 ng/g | Brain:plasma concentration ratio, individual animal ([1]; 1.00 h post dose, animals 7-9): 1.45 and 2.49 and 1.15 | Brain concentration, animal replicates ([1]; 1.00 h post dose): 188 and 205 and 144 | Brain concentration, Mean ([1]; 1.00 h post dose): 179 ng/g | Brain:plasma concentration ratio, Mean ([1]; 4.00 h post dose): 1.72 | Brain:plasma concentration ratio, individual animal ([1]; 4.00 h post dose, animals 10-12): 3.65 and 0.89 and 0.63 | Brain concentration, animal replicates ([1]; 4.00 h post dose): 166 and 46.5 and 51.9 | Brain concentration, Mean ([1]; 4.00 h post dose): 88.1 ng/g | Kp at 0.25 h ([1]; female, NCr mu/mu athymic nude, mouse, brain, inhaled or intranasal, 50 μL, 0.250 h (15 min) post dose, read-out: Brain:plasma concentration ratio, Mean): 0.38 | Kp at 0.25 h ([1]; female, NCr mu/mu athymic nude, mouse, brain, inhaled or intranasal, 50 μL, 0.250 h post dose, animals 1-3, read-out: Brain:plasma concentration ratio, individual animal): 0.34 | Kp at 0.5 h ([1]; female, NCr mu/mu athymic nude, mouse, brain, inhaled or intranasal, 50 μL, 0.500 h post dose, animals 4-6, read-out: Brain:plasma concentration ratio, individual animal): 0.39 | Kp at 0.5 h ([1]; female, NCr mu/mu athymic nude, mouse, brain, inhaled or intranasal, 50 μL, 0.500 h post dose, read-out: Brain:plasma concentration ratio, Mean): 0.46 | Kp at 1 h ([1]; female, NCr mu/mu athymic nude, mouse, brain, inhaled or intranasal, 50 μL, 1.00 h post dose): 1.7 | Kp at 4 h ([1]; female, NCr mu/mu athymic nude, mouse, brain, inhaled or intranasal, 50 μL, 4.00 h post dose): 1.7 | Cmax ([2]; NCr mu/mu athymic nude, mouse, plasma, inhaled or intranasal, single intranasal 50 μL Ex. A, read-out: maximum plasma concentration (Cmax)): 0.996 µg/mL | Plasma concentration, animal replicates ([2]; single intranasal 50 μL Ex. A, 0.5 h post dose, individual animals): 1 µg/mL and 0.823 µg/mL | Plasma concentration, animal replicates ([2]; single intranasal 50 μL Ex. A, 1.0 h post dose, individual animals): 0.0824 µg/mL and 0.125 µg/mL | Plasma concentration, animal replicates ([2]; single intranasal 50 μL Ex. A, 4.0 h post dose, individual animals): 0.0524 µg/mL and 0.0824 µg/mL | Plasma concentration, animal replicates ([2]; single intranasal 50 μL of nasal formulation Ex. A (2.3%), 0.25 h post dose, individual animals): 1.19 µg/mL and 1.23 µg/mL and 0.568 µg/mL | concentration at 0.5 h ([2]; female, NCr mu/mu athymic nude, mouse, plasma, other: intranasal, 50 μL, single intranasal 50 μL Ex. A, 0.5 h post dose, individual animals, read-out: Plasma concentration, animal replicates): 0.757 µg/mL | concentration at 0.5 h ([2]; female, NCr mu/mu athymic nude, mouse, plasma, other: intranasal, 50 μL, single intranasal 50 μL Ex. A, 0.5 h post dose, mean of 3, read-out: Plasma concentration, Mean): 0.86 µg/mL | concentration at 1 h ([2]; female, NCr mu/mu athymic nude, mouse, plasma, other: intranasal, 50 μL, single intranasal 50 μL Ex. A, 1.0 h post dose, individual animals, read-out: Plasma concentration, animal replicates): 0.13 µg/mL | concentration at 1 h ([2]; female, NCr mu/mu athymic nude, mouse, plasma, other: intranasal, 50 μL, single intranasal 50 μL Ex. A, 1.0 h post dose, mean of 3, read-out: Plasma concentration, Mean): 0.112 µg/mL | concentration at 4 h ([2]; female, NCr mu/mu athymic nude, mouse, plasma, other: intranasal, 50 μL, single intranasal 50 μL Ex. A, 4.0 h post dose, individual animals, read-out: Plasma concentration, animal replicates): 0.0455 µg/mL | concentration at 4 h ([2]; female, NCr mu/mu athymic nude, mouse, plasma, other: intranasal, 50 μL, single intranasal 50 μL Ex. A, 4.0 h post dose, mean of 3, read-out: Plasma concentration, Mean): 0.0601 µg/mL | concentration at 0.25 h ([2]; female, NCr mu/mu athymic nude, mouse, plasma, other: intranasal, 50 μL, single intranasal 50 μL of nasal formulation Ex. A (2.3%), 0.25 h post dose, mean of 3): 0.996 µg/mL
Structure (SMILES): Cn1c(Nc2ccc(I)cc2F)c(C(=O)NOCCO)c2cccnc21 [Compound 1.003, 2-((2-fluoro-4-iodophenyl)amino)-N-(2-hydroxyethoxy)-1-methyl-1H-pyrrolo[2,3-b]pyridine-3-carboxamide]
